System: Bmi-1 protein
Test: Sandwich ELISA Assay: Bmi-1 protein level in HT-1080 cells treated with test compounds
Assay type: cell-based
Method: Cell Seeding and Compound Treatment (Day 1):
HT-1080 cells were seeded at 8000 cells/well (50 μL) in 96-well tissue culture plates. After the cells became adherent (3-4 hours), 2× diluted stocks of test compounds in 50 μL DMEM containing 1% DMSO (final DMSO concentration was 0.5%) were added and the plates were incubated at 37° C. under 5% CO2 for 40-48 hours.
ELISA Plate First Antibody Preparation (Day 2):
The First Antibody (Millipore Mouse, monoclonal to mouse Bmi-1, clone F6, catalog #05-637) diluted to 2 μg/mL in PBS was added (100 μL) to each well of a Nunc MaxiSorp 96-well ELISA plate. The plate was covered with a plate seal and allowed to stand overnight.
Cell Lysate Preparation (Day 3):
Fresh Lysis buffer (1×) was prepared on the day of the assay as follows: 1 mM EDTA, 150 mM NaCl, 0.5% Triton-X 100, 10 mM NaF, 20 mM B-Glycerophosphate, 1 mM DTT (in PBS, pH 7.2-7.4) and HALT protease inhibitor cocktail (1×) (Pierce #78410).
Lysis Buffer (1×, 40 μL) was added to each well and the plate was shaken for 5-10 minutes on an orbital shaker to allow cell lysis, then diluent (1% BSA in PBS in 0.5% NP40) (100 μL) was added to each well.
A standard curve was prepared at the following Bmi-1 concentrations: 8000, 4000, 2000, 1000, 500, 250, 125 and 0 pg/mL. The Bmi-1 Recombinant Protein Standard (Novus Biologicals PCGF4 Recombinant Protein (P01), catalog # H00000648-P01) used to prepare the standard curve was stored at −80° C. On first thaw, the Recombinant Protein Standard was diluted to 10 μg/μL in Blocking Buffer (1% BSA in PBS; BSA: Fisher Scientific Catalog #1600-100). Aliquots were taken and refrozen at −80° C. The aliquots may be kept at 4° C. and reused after first thaw, but only within 1-2 weeks. The Recombinant Protein Standard contains a GST-fusion tag that appears at approximately 70 Kda on Western Blot.
The prepared ELISA plate was washed 3× with Wash Buffer (0.05% Tween-20 in PBS). The final wash was removed from the plate and the plate was blotted dry. Blocking Buffer (300 μL) (1% BSA in PBS) was added to each well. The plate was covered with a plate seal and incubated at room temperature for 1 hour. The blocked plate was washed 3× with Wash Buffer, then the final wash was removed and the plate was blotted dry. The previously prepared samples and standards were added (100 μL/well) and the plate was covered with a plate seal and incubated at 4° C. overnight.
The prepared ELISA plate was removed from incubation and allowed to stand at room temperature for 30 minutes, then washed and blotted dry. The Second Antibody (Cell Signaling Rabbit anti-Bmi-1, Cat# 2830) diluted to 1:600 in Blocking Buffer was added (100 μL) to each well, except as needed for background control wells. The plate was covered with a plate seal and incubated for 1.5 hrs at room temperature.
The ELISA plate was washed and blotted dry as previously described. The Third Antibody (Cell Signaling HRP conjugated anti-rabbit IgG (CellSignaling, Cat#:7074) diluted to 1:300 in Blocking Buffer was added (100 μL) to each well, except as needed for background control wells. The plate was incubated for 1 hr at room temperature.
The plate was washed and blotted dry, then a previously prepared TMB substrate (TMB substrate kit, Pierce catalog #34021) (prepared by mixing kit reagents 1:1) (100 μL) was added per well. The plate was incubated for 20-30 minutes at room temperature in the dark, then Stop Solution (2 M sulfuric acid in water) (50 μL) was added per well. The plates were read at OD450 (experimental) and OD570 (reference).

| EC50 | SMILES |
| --- | --- |
| 100 to 3000 nM | Cc1nc2ccccc2n1-c1nc(N)nc(Nc2ccc(C(F)(F)F)c(F)c2)n1 [Cpd 5, N-[3-fluoro-4-(trifluoromethyl)phenyl]-6-(2-methyl-1H-benzimidazol-1-yl)-1,3,5-triazine-2,4-diamine] |
| 10 to 100 nM | Cc1nc2ccccc2n1-c1nc(N)nc(Nc2ccc(OC(F)F)c(F)c2)n1 [Cpd 6, N-[4-(difluoromethoxy)-3-fluorophenyl]-6-(2-methyl-1H-benzimidazol-1-yl)-1,3,5-triazine-2,4-diamine] |
| 1 to 10 nM | Cc1nc2ccccc2n1-c1nc(N)nc(Nc2ccc3[nH]ccc3c2)n1 [Cpd 7, N-(1H-indol-5-yl)-6-(2-methyl-1H-benzimidazol-1-yl)-1,3,5-triazine-2,4-diamine] |
| 10 to 100 nM | Cc1nc2ccccc2n1-c1nc(N)nc(Nc2ccc3occc3c2)n1 [Cpd 8, N-(1-benzofuran-5-yl)-6-(2-methyl-1H-benzimidazol-1-yl)-1,3,5-triazine-2,4-diamine] |
| 100 to 3000 nM | Cc1nc2ccccc2n1-c1nc(NO)nc(Nc2ccc(C(F)(F)F)cc2)n1 [Cpd 13, N-hydroxy-6-(2-methyl-1H-benzimidazol-1-yl)-N′-[4-(trifluoromethyl)phenyl]-1,3,5-triazine-2,4-diamine] |
| 1 to 10 nM | Cc1nc2ccccc2n1-c1nc(N)nc(Nc2ccc3ncccc3c2)n1 [Cpd 14, 6-(2-methyl-1H-benzimidazol-1-yl)-N-(quinolin-6-yl)-1,3,5-triazine-2,4-diamine] |
| 100 to 3000 nM | Cc1nc2ccccc2n1-c1nc(N)nc(Nc2ccc3ocnc3c2)n1 [Cpd 15, N-(1,3-benzoxazol-5-yl)-6-(2-methyl-1H-benzimidazol-1-yl)-1,3,5-triazine-2,4-diamine] |
| 10 to 100 nM | Cc1nc2ccccc2n1-c1nc(NO)nc(Nc2ccc3ncccc3c2)n1 [Cpd 16, N-hydroxy-6-(2-methyl-1H-benzimidazol-1-yl)-N′-(quinolin-6-yl)-1,3,5-triazine-2,4-diamine] |
| 1 to 10 nM | Cc1nc2ccccc2n1-c1nc(N)nc(Nc2ccc3c(c2)OCO3)n1 [Cpd 18, N-(1,3-benzodioxol-5-yl)-6-(2-methyl-1H-benzimidazol-1-yl)-1,3,5-triazine-2,4-diamine] |
| 100 to 3000 nM | Cc1nc2ccccc2n1-c1nc(NCCO)nc(Nc2ccc3c(c2)OCO3)n1 [Cpd 19, 2-{[4-(1,3-benzodioxol-5-ylamino)-6-(2-methyl-1H-benzimidazol-1-yl)-1,3,5-triazin-2-yl]amino}ethanol] |
| 10 to 100 nM | Cc1nc2ccccc2n1-c1nc(NCCO)nc(Nc2cnc3ccccc3c2)n1 [Cpd 21, 2-{[4-(2-methyl-1H-benzimidazol-1-yl)-6-(quinolin-3-ylamino)-1,3,5-triazin-2-yl]amino}ethanol] |

Continued, molecule first:

| SMILES | EC50 |
| --- | --- |
| COc1ccc(Nc2nc(N)nc(-c3c(C(F)(F)F)nc4ccccn34)n2)cc1F [Cpd 1, N-(3-fluoro-4-methoxyphenyl)-6-[2-(trifluoromethyl)imidazo[1,2-a]pyridin-3-yl]-1,3,5-triazine-2,4-diamine] | 1 to 10 nM |
| Cc1nc2ccccc2n1-c1nc(N)nc(Nc2ccc(C(F)(F)F)cc2)n1 [Cpd 2, 6-(2-methyl-1H-benzimidazol-1-yl)-N-[4-(trifluoromethyl)phenyl]-1,3,5-triazine-2,4-diamine] | 10 to 100 nM |
| Cc1nc2ccccc2n1-c1nc(N)nc(Nc2ccc(OC(F)(F)F)cc2)n1 [Cpd 3, 6-(2-methyl-1H-benzimidazol-1-yl)-N-[4-(trifluoromethoxy)phenyl]-1,3,5-triazine-2,4-diamine] | 100 to 3000 nM |
| Cc1nc2ccccc2n1-c1nc(N)nc(Nc2ccc(OC(F)F)cc2)n1 [Cpd 4, N-[4-(difluoromethoxy)phenyl]-6-(2-methyl-1H-benzimidazol-1-yl)-1,3,5-triazine-2,4-diamine] | 10 to 100 nM |
| Cc1nc2cc(F)c(F)cc2n1-c1nc(N)nc(Nc2ccc(C(F)(F)F)cc2)n1 [Cpd 9, 6-(5,6-difluoro-2-methyl-1H-benzimidazol-1-yl)-N-[4-(trifluoromethyl)phenyl]-1,3,5-triazine-2,4-diamine] | 100 to 3000 nM |
| Cc1nc2cc(F)c(F)cc2n1-c1nc(N)nc(Nc2ccc(OC(F)F)c(F)c2)n1 [Cpd 10, N-[4-(difluoromethoxy)-3-fluorophenyl]-6-(5,6-difluoro-2-methyl-1H-benzimidazol-1-yl)-1,3,5-triazine-2,4-diamine] | 100 to 3000 nM |
| Cc1nc2cc(F)c(F)cc2n1-c1nc(N)nc(Nc2ccc(OC(F)F)cc2)n1 [Cpd 11, N-[4-(difluoromethoxy)phenyl]-6-(5,6-difluoro-2-methyl-1H-benzimidazol-1-yl)-1,3,5-triazine-2,4-diamine] | 10 to 100 nM |
| Cc1nc2cc(Cl)c(Cl)cc2n1-c1nc(N)nc(Nc2ccc(C(F)(F)F)cc2)n1 [Cpd 12, 6-(5,6-dichloro-2-methyl-1H-benzimidazol-1-yl)-N-[4-(trifluoromethyl)phenyl]-1,3,5-triazine-2,4-diamine] | 100 to 3000 nM |
| Cc1nc2ncccc2n1-c1nc(N)nc(Nc2ccc(C(F)(F)F)cc2)n1 [Cpd 17, 6-(2-methyl-1H-imidazo[4,5-b]pyridin-1-yl)-N-[4-(trifluoromethyl)phenyl]-1,3,5-triazine-2,4-diamine] | 100 to 3000 nM |
| Cc1nc2ccccc2n1-c1nc(N)nc(Nc2cnc3ccccc3c2)n1 [Cpd 20, 6-(2-methyl-1H-benzimidazol-1-yl)-N-(quinolin-3-yl)-1,3,5-triazine-2,4-diamine] | 1 to 10 nM |
| Cc1nc2ccccc2n1-c1nc(N)nc(Nc2cc3ccccc3cn2)n1 [Cpd 22, N-(isoquinolin-3-yl)-6-(2-methyl-1H-benzimidazol-1-yl)-1,3,5-triazine-2,4-diamine] | 10 to 100 nM |
| Cc1nc2ncccc2n1-c1nc(N)nc(Nc2ccc(OC(F)F)cc2)n1 [Cpd 23, N-[4-(difluoromethoxy)phenyl]-6-(2-methyl-1H-imidazo[4,5-b]pyridin-1-yl)-1,3,5-triazine-2,4-diamine] | 100 to 3000 nM |
| Cc1nc2ncc(F)cc2n1-c1nc(N)nc(Nc2ccc(C(F)(F)F)cc2)n1 [Cpd 24, 6-(6-fluoro-2-methyl-1H-imidazo[4,5-b]pyridin-1-yl)-N-[4-(trifluoromethyl)phenyl]-1,3,5-triazine-2,4-diamine] | 100 to 3000 nM |
| Nc1nc(Nc2ccc(C(F)(F)F)cc2)nc(-c2c(C(F)(F)F)nc3ccc(F)cn23)n1 [Cpd 25, 6-[6-fluoro-2-(trifluoromethyl)imidazo[1,2-a]pyridin-3-yl]-N-[4-(trifluoromethyl)phenyl]-1,3,5-triazine-2,4-diamine] | 10 to 100 nM |
| Cc1nc2ccc(F)cc2n1-c1nc(N)nc(Nc2ccc(C(F)(F)F)cc2)n1 [Cpd 26, 6-(6-fluoro-2-methyl-1H-benzimidazol-1-yl)-N-[4-(trifluoromethyl)phenyl]-1,3,5-triazine-2,4-diamine] | 10 to 100 nM |
| Cc1nc2cc(F)ccc2n1-c1nc(N)nc(Nc2ccc(C(F)(F)F)cc2)n1 [Cpd 27, 6-(5-fluoro-2-methyl-1H-benzimidazol-1-yl)-N-[4-(trifluoromethyl)phenyl]-1,3,5-triazine-2,4-diamine] | 100 to 3000 nM |
| Cc1nc2ccc(F)cc2n1-c1nc(N)nc(Nc2ccc(OC(F)F)cc2)n1 [Cpd 28, N-[4-(difluoromethoxy)phenyl]-6-(6-fluoro-2-methyl-1H-benzimidazol-1-yl)-1,3,5-triazine-2,4-diamine] | 10 to 100 nM |
| Cc1nc2ccc(F)cc2n1-c1nc(N)nc(Nc2ccc(OC(F)F)c(F)c2)n1 [Cpd 29, N-[4-(difluoromethoxy)-3-fluorophenyl]-6-(6-fluoro-2-methyl-1H-benzimidazol-1-yl)-1,3,5-triazine-2,4-diamine] | 10 to 100 nM |
| CCc1nc2ccccc2n1-c1nc(N)nc(Nc2ccc(C(F)(F)F)cc2)n1 [Cpd 30, 6-(2-ethyl-1H-benzimidazol-1-yl)-N-[4-(trifluoromethyl)phenyl]-1,3,5-triazine-2,4-diamine] | 10 to 100 nM |

From US9975878B2, “Substituted triazine BMI-1 inhibitors” (PTC Therapeutics, Inc., priority 2013, dated 2018)
